≈ marks a conversion by molar mass, not a printed value. Positions of bridges follow the written chain, without caps; N, C: chain ends. Non-standard residues stand in square brackets, D forms with d. Residues, ends and D or L forms follow the SMILES beside them. Groups on a side chain read outwards from the residue. Chains are numbered I, II in the order given. *: point of attachment. X4 = CC(C)C[C@@H](NC(=O)CCCCCN)C(=O)NCCCC[C@@H](NC(=O)[C@@H](CC(C)C)NC(=O)CCCCCN)C(=O)*; Ahx = NCCCCCC(=O)O
Experiments:
[1] = tested on: S aureus COL (methicillin-resistant Staphylococcus aureus); conditions: for MIC at pH 5.0, S aureus COL: COL (methicillin-resistant, pH 5); for MIC at pH 7.4, S aureus COL: COL (methicillin-resistant, pH 7.4); for MIC at pH 8.0, S aureus COL: COL (methicillin-resistant, pH 8)
K. pneumoniae OXA-48 = conditions: OXA-48, pH 7.4
K. pneumoniae NCTC 418 = conditions: for MIC at pH 5.0, K. pneumoniae NCTC 418: NCTC 418, pH 5; for MIC at pH 7.4, K. pneumoniae NCTC 418: NCTC 418, pH 7.4; for MIC at pH 8.0, K. pneumoniae NCTC 418: NCTC 418, pH 8
P. aeruginosa PAO1 = conditions: for MIC at pH 5.0, P. aeruginosa PAO1: PAO1, pH 5; for MIC at pH 7.4, P. aeruginosa PAO1: PAO1, pH 7.4; for MIC at pH 8.0, P. aeruginosa PAO1: PAO1, pH 8
P. aeruginosa ZEM9A = conditions: ZEM9A, pH 7.4
S. aureus Newman = conditions: Newman, pH 7.4
A. baumannii ATCC 19606 = conditions: for MIC at pH 5.0, A. baumannii ATCC 19606: ATCC 19606, pH 5; for MIC at pH 7.4, A. baumannii ATCC 19606: ATCC 19606, pH 7.4; for MIC at pH 8.0, A. baumannii ATCC 19606: ATCC 19606, pH 8
P. aeruginosa ZEM-1A = conditions: ZEM-1A, pH 7.4
E. coli W3110 = conditions: for MIC at pH 5.0, E. coli W3110: W3110, pH 5; for MIC at pH 7.4, E. coli W3110: W3110, pH 7.4; for MIC at pH 8.0, E. coli W3110: W3110, pH 8
B. cenocepacia = conditions: pH 7.4
E. cloacae = conditions: pH 7.4
S. maltophilia = conditions: pH 7.4
P. aeruginosa PA14 = conditions: PA14, pH 7.4
HEK293 cell line = type: cell-based; conditions: 48 h
Experimental: HEK 293 cell line were cultured and maintained in DMEM (Dulbeccos modified Eagle
medium, Sigma Aldrich) supplemented with 10% FBS (Sigma Aldrich) and 1%
penicillin/streptomycin. Cells were incubated in a humidified incubator at 37°C in the presence
HEK 293 cell were seeded into 96 well plates at the density of 2 × 10^3 cells/well and incubated
in DMEM containing 10% FBS for 10-14 hours at 37°C in the presence of 5% CO2. The next
day, stock solution of compounds were prepared at concentration of 2 mg/mL in DMEM
containing 10% FBS. 1/2 or 1/3 serial dilution of the peptide dendrimers from 2 mg/mL or 200
µg/mL were performed in DMEM containing 10% FBS. The medium was removed from cell
culture and replaced with the compounds at different concentration after washing with PBS.
The cells were incubated in DMEM containing 10% FBS at 37°C in the presence of 5% CO 2.
Negative control was untreated cell culture without compounds and blank control was wells
without cell but only medium. After 48 hours, a final concentration of 10% AlamarBlue®
(Thermo Fisher Scientific, Reinach, CH) was added to each well . The cells were incubated for
3-5 hours at 37°C with 5% CO 2. The fluorescence was then measured on a Tecan Infinite
M1000 Pro plate reader at λex = 560 nm and λem = 590 nm. The value was normalized
according to the untreated cells.

SMILES	MIC at pH 5.0, S aureus COL [1] [μg/mL]	MIC at pH 7.4, S aureus COL [1] [μg/mL]	MIC at pH 8.0, S aureus COL [1] [μg/mL]	MIC at pH 5.0, K. pneumoniae NCTC 418 (K. pneumoniae NCTC 418) [μg/mL]	MIC at pH 7.4, K. pneumoniae NCTC 418 (K. pneumoniae NCTC 418) [μg/mL]	MIC at pH 8.0, K. pneumoniae NCTC 418 (K. pneumoniae NCTC 418) [μg/mL]	MIC at pH 5.0, P. aeruginosa PAO1 (P. aeruginosa PAO1) [μg/mL]	MIC at pH 7.4, P. aeruginosa PAO1 (P. aeruginosa PAO1) [μg/mL]	MIC at pH 8.0, P. aeruginosa PAO1 (P. aeruginosa PAO1) [μg/mL]	MIC at pH 5.0, A. baumannii ATCC 19606 (A. baumannii ATCC 19606)	MIC at pH 7.4, A. baumannii ATCC 19606 (A. baumannii ATCC 19606)	MIC at pH 8.0, A. baumannii ATCC 19606 (A. baumannii ATCC 19606)	MIC at pH 5.0, E. coli W3110 (E. coli W3110) [μg/mL]	MIC at pH 7.4, E. coli W3110 (E. coli W3110) [μg/mL]	MIC at pH 8.0, E. coli W3110 (E. coli W3110) [μg/mL]	IC50 HEK293 (HEK293 cell line) [µg/mL]	further results
CC(C)C[C@H](NC(=O)[C@H](CC(C)C)NC(=O)[C@H](CCCCN)NC(=O)[C@H](CCCCNC(=O)[C@H](CC(C)C)NC(=O)[C@H](CCCCNC(=O)[C@H](CC(C)C)NC(=O)[C@@H](N)CCCCN)NC(=O)[C@H](CC(C)C)NC(=O)[C@@H](N)CCCCN)NC(=O)[C@H](CC(C)C)NC(=O)[C@H](CCCCNC(=O)[C@H](CC(C)C)NC(=O)[C@@H](N)CCCCN)NC(=O)[C@H](CC(C)C)NC(=O)[C@@H](N)CCCCN)C(=O)NCCCC[C@H](NC(=O)[C@H](CC(C)C)NC(=O)[C@H](CC(C)C)NC(=O)[C@H](CCCCN)NC(=O)[C@H](CCCCNC(=O)[C@H](CC(C)C)NC(=O)[C@H](CCCCNC(=O)[C@H](CC(C)C)NC(=O)[C@@H](N)CCCCN)NC(=O)[C@H](CC(C)C)NC(=O)[C@@H](N)CCCCN)NC(=O)[C@H](CC(C)C)NC(=O)[C@H](CCCCNC(=O)[C@H](CC(C)C)NC(=O)[C@@H](N)CCCCN)NC(=O)[C@H](CC(C)C)NC(=O)[C@@H](N)CCCCN)C(=O)N[C@@H](CC(C)C)C(=O)N[C@@H](CCCCN)C(=O)N[C@@H](CCCCN)C(N)=O [L-X22] (HELM PEPTIDE1{K.L.K.L.K.K.L.L.K.L.K.K.[am]}|PEPTIDE2{[CC(C)C[C@H](NC(=O)[C@@H](N)CCCCN)C(=O)NCCCC[C@H](NC(=O)[C@H](CC(C)C)NC(=O)[C@@H](N)CCCCN)C(=O)[*:2]].L}|PEPTIDE3{K.L}|PEPTIDE4{K.L.K.L.K.K.L.L}|PEPTIDE5{[CC(C)C[C@H](NC(=O)[C@@H](N)CCCCN)C(=O)NCCCC[C@H](NC(=O)[C@H](CC(C)C)NC(=O)[C@@H](N)CCCCN)C(=O)[*:2]].L}|PEPTIDE6{K.L}$PEPTIDE1,PEPTIDE2,5:R3-2:R2|PEPTIDE1,PEPTIDE3,3:R3-2:R2|PEPTIDE4,PEPTIDE5,5:R3-2:R2|PEPTIDE4,PEPTIDE6,3:R3-2:R2|PEPTIDE1,PEPTIDE4,9:R3-8:R2$$$V2.0)	> 64	> 64	8	> 64	> 64	8	8	4	4	8 μg/mL	4 μg/mL	2 μg/mL	8	4	2		MIC, K. pneumoniae OXA-48 (K. pneumoniae OXA-48): 8 µg/mL (≈ 1.83 µM); MIC, P. aeruginosa ZEM9A (P. aeruginosa ZEM9A): 32 µg/mL (≈ 7.31 µM); MIC, S. aureus Newman (S. aureus Newman): >64 µg/mL; MIC, P. aeruginosa ZEM-1A (P. aeruginosa ZEM-1A): 4 µg/mL (≈ 0.914 µM); MIC, B. cenocepacia (B. cenocepacia): >64 µg/mL; MIC, E. cloacae (E. cloacae): 4 µg/mL (≈ 0.914 µM); MIC, S. maltophilia (S. maltophilia): 4 µg/mL (≈ 0.914 µM); MIC, P. aeruginosa PA14 (P. aeruginosa PA14): 4 µg/mL (≈ 0.914 µM)
CC(C)C[C@H](NC(=O)[C@H](CC(C)C)NC(=O)[C@H](CCCCN)NC(=O)[C@H](CCCCNC(=O)[C@H](CC(C)C)NC(=O)[C@H](CC(C)C)NC(=O)[C@H](CCCCNC(=O)[C@H](CC(C)C)NC(=O)[C@H](CCCCN)NC(=O)[C@H](CCCCNC(=O)[C@H](CC(C)C)NC(=O)[C@@H](N)CCCCN)NC(=O)[C@H](CC(C)C)NC(=O)[C@@H](N)CCCCN)NC(=O)[C@H](CC(C)C)NC(=O)[C@H](CCCCN)NC(=O)[C@H](CCCCNC(=O)[C@H](CC(C)C)NC(=O)[C@@H](N)CCCCN)NC(=O)[C@H](CC(C)C)NC(=O)[C@@H](N)CCCCN)NC(=O)[C@H](CC(C)C)NC(=O)[C@H](CC(C)C)NC(=O)[C@H](CCCCNC(=O)[C@H](CC(C)C)NC(=O)[C@H](CCCCN)NC(=O)[C@H](CCCCNC(=O)[C@H](CC(C)C)NC(=O)[C@@H](N)CCCCN)NC(=O)[C@H](CC(C)C)NC(=O)[C@@H](N)CCCCN)NC(=O)[C@H](CC(C)C)NC(=O)[C@H](CCCCN)NC(=O)[C@H](CCCCNC(=O)[C@H](CC(C)C)NC(=O)[C@@H](N)CCCCN)NC(=O)[C@H](CC(C)C)NC(=O)[C@@H](N)CCCCN)C(N)=O [L-T25, reference compound] (HELM PEPTIDE1{K.L.K.K.L.K.L.L.K.K.L.L.[am]}|PEPTIDE2{K.L}|PEPTIDE3{K.L.K.K.L.K.L.L}|PEPTIDE4{K.L}|PEPTIDE5{K.L.K.K.L}|PEPTIDE6{K.L}|PEPTIDE7{K.L.K.K.L}|PEPTIDE8{K.L}$PEPTIDE1,PEPTIDE2,3:R3-2:R2|PEPTIDE3,PEPTIDE4,3:R3-2:R2|PEPTIDE5,PEPTIDE6,3:R3-2:R2|PEPTIDE7,PEPTIDE8,3:R3-2:R2|PEPTIDE1,PEPTIDE7,6:R3-5:R2|PEPTIDE1,PEPTIDE3,9:R3-8:R2|PEPTIDE3,PEPTIDE5,6:R3-5:R2$$$V2.0)	> 64	> 64	32	> 64	32	16	32	8	8	16 μg/mL	4 μg/mL	4 μg/mL	32	8	8	92 ± 3 (≈ 19.9 µM)	
CC(C)C[C@@H](NC(=O)CCCCCN)C(=O)NCCCC[C@@H](NC(=O)[C@@H](CC(C)C)NC(=O)CCCCCN)C(=O)N[C@H](CC(C)C)C(=O)NCCCC[C@@H](NC(=O)[C@@H](CC(C)C)NC(=O)[C@@H](CCCCNC(=O)[C@@H](CC(C)C)NC(=O)CCCCCN)NC(=O)[C@@H](CC(C)C)NC(=O)CCCCCN)C(=O)N[C@H](CCCCN)C(=O)N[C@H](CC(C)C)C(=O)N[C@H](CC(C)C)C(=O)NCCCC[C@@H](NC(=O)[C@@H](CC(C)C)NC(=O)[C@@H](CC(C)C)NC(=O)[C@@H](CCCCN)NC(=O)[C@@H](CCCCNC(=O)[C@@H](CC(C)C)NC(=O)[C@@H](CCCCNC(=O)[C@@H](CC(C)C)NC(=O)CCCCCN)NC(=O)[C@@H](CC(C)C)NC(=O)CCCCCN)NC(=O)[C@@H](CC(C)C)NC(=O)[C@@H](CCCCNC(=O)[C@@H](CC(C)C)NC(=O)CCCCCN)NC(=O)[C@@H](CC(C)C)NC(=O)CCCCCN)C(=O)N[C@H](CC(C)C)C(=O)N[C@H](CCCCN)C(=O)N[C@H](CCCCN)C(N)=O [D-aX22] (I: H-[Ahx][dL][dK]([dL-Ahx])[dL][dK]([dL-X4])[dK][dL][dL][dK][dL][dK][dK]-NH2 / II: H-[Ahx][dL][dK]([dL-Ahx])[dL][dK]([dL-X4])[dK][dL][dL]; amide I:9-II:C)	> 64	16	4	64	16	16	32	8	16	4/4/4 μg/mL	4/4/4 μg/mL	4/4/4 μg/mL	4	8	4	17 ± 2 (≈ 3.99 µM)	

Source: article PMC9780108, “An intrinsically disordered antimicrobial peptide dendrimer from stereorandomized virtual screening” (Cell Reports. Physical Science, 2022)
